Test system: 324938-238-R-J1-PDC complex spheroid growth, % test/control
Experiment: Anticancer human tumor 324938-238-R-J1-PDC patient-derived bladder carcinoma cell line growth inhibition [AhR]
Conditions: for IC50: curve of first compound; for viability, T/C: stronger effect = lower value
In short: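 Spheroids combined tumor cells with HUVEC endothelial cells and human MSCs as stroma. AhR antagonists were paired with standard or investigational drugs, each dosed in half-log steps down from near clinical Cmax, or from 10 microM where Cmax was unknown.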

[1] = second compound 0.1 µM, first compound 0.00316 µM
[2] = second compound 0.1 µM, first compound 0.01 µM
[3] = second compound 0.1 µM, first compound 0.0316 µM
[4] = second compound 0.1 µM, first compound 0.1 µM
[5] = second compound 0.316 µM, first compound 0.00316 µM
[6] = second compound 0.316 µM, first compound 0.01 µM
[7] = second compound 0.316 µM, first compound 0.0316 µM
[8] = second compound 0.316 µM, first compound 0.1 µM
[9] = second compound 1 µM, first compound 0.00316 µM
[10] = second compound 1 µM, first compound 0.01 µM
[11] = second compound 1 µM, first compound 0.0316 µM
[12] = second compound 1 µM, first compound 0.1 µM
[13] = second compound 3.16 µM, first compound 0.00316 µM
[14] = second compound 3.16 µM, first compound 0.01 µM
[15] = second compound 3.16 µM, first compound 0.0316 µM
[16] = second compound 3.16 µM, first compound 0.1 µM
[17] = second compound 10 µM, first compound 0.00316 µM
[18] = second compound 10 µM, first compound 0.01 µM
[19] = second compound 10 µM, first compound 0.0316 µM
[20] = second compound 10 µM, first compound 0.1 µM
[21] = second compound 0.1 µM, first compound 0.316 µM
[22] = second compound 0.1 µM, first compound 1 µM
[23] = second compound 0.316 µM, first compound 0.316 µM
[24] = second compound 0.316 µM, first compound 1 µM
[25] = second compound 1 µM, first compound 0.316 µM
[26] = second compound 1 µM, first compound 1 µM
[27] = second compound 3.16 µM, first compound 0.316 µM
[28] = second compound 3.16 µM, first compound 1 µM
[29] = second compound 10 µM, first compound 0.316 µM
[30] = second compound 10 µM, first compound 1 µM
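Note: spheroids exposed to agents for seven days before viability read.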

With `Cn1ncnc1C1c2n[nH]c(=O)c3cc(F)cc(c23)NC1c1ccc(F)cc1` (stereo not given) + Cc1ccccc1N=Nc1ccc(NC(=O)c2ccnn2C)c(C)c1 the IC50 (second compound 0.1 µM) was over 100 nM, the IC50 (second compound 0.316 µM) was over 100 nM and the IC50 (second compound 1 µM) was over 100 nM. For the same compound, the IC50 (second compound 3.16 µM) was over 100 nM, the IC50 (second compound 10 µM) was over 100 nM and the viability, T/C (second compound 0.1 µM, first compound 0.000316 µM) was 103%. It also gave a viability, T/C (second compound 0.1 µM, first compound 0.001 µM) of 114%, a viability, T/C [1] of 107% and a viability, T/C [2] of 83.6%. It also gave a viability, T/C [3] of 81.1%, a viability, T/C [4] of 63.8% and a viability, T/C (second compound 0.316 µM, first compound 0.000316 µM) of 98.4%. The viability, T/C (second compound 0.316 µM, first compound 0.001 µM) was 100%, the viability, T/C [5] was 103% and the viability, T/C [6] was 74.4%. For the same compound, the viability, T/C [7] was 76.1%, the viability, T/C [8] was 69% and the viability, T/C (second compound 1 µM, first compound 0.000316 µM) was 92%. It also gave a viability, T/C (second compound 1 µM, first compound 0.001 µM) of 96.5%, a viability, T/C [9] of 95.7% and a viability, T/C [10] of 66.5%. The viability, T/C [11] was 85%, the viability, T/C [12] was 62.4% and the viability, T/C (second compound 3.16 µM, first compound 0.000316 µM) was 83.9%. The viability, T/C (second compound 3.16 µM, first compound 0.001 µM) was 83.7%, the viability, T/C [13] was 86.9% and the viability, T/C [14] was 73.6%. For the same compound, the viability, T/C [15] was 78.3%, the viability, T/C [16] was 61.1% and the viability, T/C (second compound 10 µM, first compound 0.000316 µM) was 78.2%. It also gave a viability, T/C (second compound 10 µM, first compound 0.001 µM) of 77.8%, a viability, T/C [17] of 77.2% and a viability, T/C [18] of 73.5%. For the same compound, the viability, T/C [19] was 69.2% and the viability, T/C [20] was 66%.

For `CC1COCCN1c1cc(-c2ccnn2C)c2ccnc(-c3ccn[nH]3)c2n1` (stereo not given) + Cc1cncc(-c2nc(NCCc3c[nH]c4ccccc34)c3ncn(C(C)C)c3n2)c1, the IC50 (second compound 0.1 µM) was over 1000 nM, the IC50 (second compound 0.316 µM) was over 1000 nM and the IC50 (second compound 1 µM) was over 1000 nM. For the same compound, the IC50 (second compound 3.16 µM) was over 1000 nM, the IC50 (second compound 10 µM) was under 3.16 nM and the viability, T/C [1] was 87.9%. For the same compound, the viability, T/C [2] was 123%, the viability, T/C [3] was 112% and the viability, T/C [4] was 89.6%. For the same compound, the viability, T/C [21] was 81.2%, the viability, T/C [22] was 54.9% and the viability, T/C [5] was 121%. It also gave a viability, T/C [6] of 150%, a viability, T/C [7] of 114% and a viability, T/C [8] of 81.3%. For the same compound, the viability, T/C [23] was 81.6%, the viability, T/C [24] was 70.2% and the viability, T/C [9] was 114%. For the same compound, the viability, T/C [10] was 122%, the viability, T/C [11] was 137% and the viability, T/C [12] was 88%. The viability, T/C [25] was 72.2%, the viability, T/C [26] was 53.3% and the viability, T/C [13] was 67.2%. It also gave a viability, T/C [14] of 60.2%, a viability, T/C [15] of 77.6% and a viability, T/C [16] of 70.6%. For the same compound, the viability, T/C [27] was 67.8%, the viability, T/C [28] was 72.2% and the viability, T/C [17] was 4.75%. For the same compound, the viability, T/C [18] was 5.66%, the viability, T/C [19] was 2.57% and the viability, T/C [20] was 2.16%. It also gave a viability, T/C [29] of 2.35% and a viability, T/C [30] of 5.11%.

`CC1COCCN1c1cc(-c2ccnn2C)c2ccnc(-c3ccn[nH]3)c2n1` (stereo not given) + Cc1ccccc1N=Nc1ccc(NC(=O)c2ccnn2C)c(C)c1 was tested, and the IC50 (second compound 0.1 µM) was 277 nM, the IC50 (second compound 0.316 µM) was 379 nM and the IC50 (second compound 1 µM) was 245 nM. It also gave an IC50 (second compound 3.16 µM) of 309 nM, an IC50 (second compound 10 µM) of 324 nM and a viability, T/C [1] of 102%. It also gave a viability, T/C [2] of 104%, a viability, T/C [3] of 102% and a viability, T/C [4] of 74.7%. The viability, T/C [21] was 48.8%, the viability, T/C [22] was 32.7% and the viability, T/C [5] was 104%. The viability, T/C [6] was 90.8%, the viability, T/C [7] was 88.8% and the viability, T/C [8] was 71.5%. For the same compound, the viability, T/C [23] was 53.6%, the viability, T/C [24] was 30.4% and the viability, T/C [9] was 95%. For the same compound, the viability, T/C [10] was 95.4%, the viability, T/C [11] was 87.6% and the viability, T/C [12] was 65.8%. It also gave a viability, T/C [25] of 46.6%, a viability, T/C [26] of 31.5% and a viability, T/C [13] of 78.8%. The viability, T/C [14] was 88.3%, the viability, T/C [15] was 73.8% and the viability, T/C [16] was 67.5%. For the same compound, the viability, T/C [27] was 49.8%, the viability, T/C [28] was 31.6% and the viability, T/C [17] was 74.3%. The viability, T/C [18] was 81.2%, the viability, T/C [19] was 71% and the viability, T/C [20] was 64.4%. The viability, T/C [29] was 50.8% and the viability, T/C [30] was 35%.

Compound `CCc1c2c(nc3ccc(O)cc13)-c1cc3c(c(=O)n1C2)COC(=O)[C@]3(O)CC` + CC(CO)NC(=O)c1cc(-c2ccc(Cl)cc2)nn(-c2cnn(C)c2)c1=O has an IC50 (second compound 0.1 µM) of under 0.949 nM, an IC50 (second compound 0.316 µM) of under 0.949 nM and an IC50 (second compound 1 µM) of under 0.949 nM. The IC50 (second compound 3.16 µM) was under 0.949 nM, the IC50 (second compound 10 µM) was under 0.949 nM and the viability, T/C (second compound 0.1 µM, first compound 0.000949 µM) was 41.3%. The viability, T/C (second compound 0.1 µM, first compound 0.003 µM) was 28.7%, the viability, T/C (second compound 0.1 µM, first compound 0.00949 µM) was 15.3% and the viability, T/C (second compound 0.1 µM, first compound 0.03 µM) was 17.3%. It also gave a viability, T/C (second compound 0.1 µM, first compound 0.0949 µM) of 17.4%, a viability, T/C (second compound 0.1 µM, first compound 0.3 µM) of 15.9% and a viability, T/C (second compound 0.316 µM, first compound 0.000949 µM) of 37.5%. It also gave a viability, T/C (second compound 0.316 µM, first compound 0.003 µM) of 31%, a viability, T/C (second compound 0.316 µM, first compound 0.00949 µM) of 17.1% and a viability, T/C (second compound 0.316 µM, first compound 0.03 µM) of 16.9%. It also gave a viability, T/C (second compound 0.316 µM, first compound 0.0949 µM) of 15.8%, a viability, T/C (second compound 0.316 µM, first compound 0.3 µM) of 18.6% and a viability, T/C (second compound 1 µM, first compound 0.000949 µM) of 43.3%. It also gave a viability, T/C (second compound 1 µM, first compound 0.003 µM) of 29%, a viability, T/C (second compound 1 µM, first compound 0.00949 µM) of 19.6% and a viability, T/C (second compound 1 µM, first compound 0.03 µM) of 15.5%. The viability, T/C (second compound 1 µM, first compound 0.0949 µM) was 16.1%, the viability, T/C (second compound 1 µM, first compound 0.3 µM) was 15.3% and the viability, T/C (second compound 3.16 µM, first compound 0.000949 µM) was 34%. For the same compound, the viability, T/C (second compound 3.16 µM, first compound 0.003 µM) was 28.9%, the viability, T/C (second compound 3.16 µM, first compound 0.00949 µM) was 18.9% and the viability, T/C (second compound 3.16 µM, first compound 0.03 µM) was 14.5%. It also gave a viability, T/C (second compound 3.16 µM, first compound 0.0949 µM) of 14.6%, a viability, T/C (second compound 3.16 µM, first compound 0.3 µM) of 13.8% and a viability, T/C (second compound 10 µM, first compound 0.000949 µM) of 36.3%. The viability, T/C (second compound 10 µM, first compound 0.003 µM) was 31.8%, the viability, T/C (second compound 10 µM, first compound 0.00949 µM) was 24.4% and the viability, T/C (second compound 10 µM, first compound 0.03 µM) was 17.1%. For the same compound, the viability, T/C (second compound 10 µM, first compound 0.0949 µM) was 18.6% and the viability, T/C (second compound 10 µM, first compound 0.3 µM) was 17%.

Source: PubChem BioAssay AID1918995 (Molecular Pharmacology Branch, DTP, NCI, 2023)
